Experimental data: patent publication US10030016B2 (Sunesis Pharmaceuticals, Inc., priority 2009, dated 2018)
Structures can show the parent of a compound that is named as a salt. Where two headings read alike, the source gives them in different places.

What was measured:
PDK1 = PDK1 (Homo sapiens (Human), UniProt O15530); experiment: PDK1 kinase assay (coupled PDK1/AKT/FAM-crosstide assay, IMAP fluorescence polarization); format: biochemical
Outline: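 GST-tagged PDK1 (aa 51-359, 0.75 nM) was coupled to unphosphorylated GST-AKT2 140-467-PIFtide (10 nM) and 100 nM FAM-crosstide at 40 μM ATP, in Tris pH 7.2 buffer, for 30 min at 25 °C. Crosstide phosphorylation was read by IMAP fluorescence polarization (ΔmP) and fitted with a 4-parameter curve.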

[1] = test system: phospho-akt (Thr308) in PC-3 cells; experiment: Inhibition of phospho-akt (Thr308) in PC-3 cells, MSD phospho-akt 308 ELISA kit; format: cell-based; conditions: Homo sapiens, 2 hours, no serum, read-out: EC50
Outline: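 Electrochemiluminescent MSD ELISA of Thr308-phosphorylated Akt after a 2 h serum-free compound exposure of PC-3 cells (15,000/well, plated overnight). Controls: DMSO (high), 5 μM wortmannin (low). Lysate binding overnight at 4 °C; detection antibody 1 h at room temperature.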

[2] = inhibition of P308 Akt in PC-3 cells using MSD
[3] = inhibition of phospo-PDK1 in vitro
[4] = inhibition of P308 Akt in PC-3 cells, MSD

Sequence of PDK1 (O15530 51-359): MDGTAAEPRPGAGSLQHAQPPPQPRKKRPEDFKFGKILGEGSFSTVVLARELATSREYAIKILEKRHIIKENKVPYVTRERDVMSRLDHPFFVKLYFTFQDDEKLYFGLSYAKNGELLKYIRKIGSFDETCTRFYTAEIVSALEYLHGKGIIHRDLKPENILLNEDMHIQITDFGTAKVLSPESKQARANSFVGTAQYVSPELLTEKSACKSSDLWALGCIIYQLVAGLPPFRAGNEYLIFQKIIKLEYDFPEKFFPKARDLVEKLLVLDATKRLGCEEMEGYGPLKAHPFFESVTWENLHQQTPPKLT

| SMILES | IC50 (PDK1; inhibition of PDK1 in vitro) | EC50 [1, 2] | IC50 (PDK1; [3]) | EC50 [1, 4] |
| --- | --- | --- | --- | --- |
| N#Cc1cnc(NCc2ccc(-c3cnc(N)cn3)cc2)c(C(=O)NCc2cncc(F)c2)c1 [Example 312, 2-(4-(5-aminopyrazin-2-yl)benzylamino)-5-cyano-N-((5-fluoropyridin-3-yl)-methyl)nicotinamide] | < 100 nM | < 1000 nM |  |  |
| Nc1n[nH]c2ncc(-c3ccc(CNc4ncc(C(F)(F)F)cc4C(=O)Nc4ccc(F)cc4)cc3)cc12 [Example 38, 2-[4-(3-Amino-1H-pyrazolo[3,4-b]pyridin-5-yl)-benzylamino]-N-(4-fluoro-phenyl)-5-trifluoromethyl-nicotinamide] |  |  | < 100 nM | < 1000 nM |
| Nc1n[nH]c2ncc(-c3ccc(CNc4ncc(C(F)(F)F)cc4C(=O)NC4COC4)cc3)cc12 [Example 298, 2-(4-(3-amino-1H-pyrazolo [3,4-b]pyridin-5-yl)benzylamino)-N-(oxetan-3-yl)-5-(trifluoromethyl) nicotinamide] | 1000 to 5000 nM | > 10000 nM |  |  |
| C[C@H](NC(=O)c1cc(C#N)cnc1NCc1ccc(-c2c[nH]nc2N)cc1)c1ccc(F)cc1 [Example 142, (S)-2-(4-(3-amino-1H-pyrazol-4-yl)benzylamino)-5-cyano-N-(1-(4-fluorophenyl)ethyl) nicotinamide] | > 5000 nM | 1000 to 10000 nM |  |  |
| CCN(CC)CCNC(=O)c1cc(-c2ccc(CNc3ncc(C#N)cc3C(=O)N[C@@H](C)c3ccc(F)cc3)cc2)cnc1N [Example 118] | < 100 nM | 1000 to 10000 nM |  |  |
| C[C@H](NC(=O)c1cccnc1NCc1ccc(-c2ccc3ncnn3c2)s1)c1ccc(F)cc1 [Example 2.4, N-[(1S)-1-(4-fluorophenyl)ethyl]-2-({[5-([1,2,4]triazolo[1,5-a]pyridin-6-yl)thiophen-2-yl]methyl}amino)pyridine-3-carboxamide] |  |  | 1000 to 5000 nM | > 10000 nM |
| Nc1ccc(-c2ccc(CNc3ncccc3C(=O)NCc3cncc(F)c3)cc2)cn1 [Example 373, 2-(4-(6-aminopyridin-3-yl)benzylamino)-N-((5-fluoropyridin-3-yl)methyl)nicotinamide] | 1000 to 5000 nM | 1000 to 10000 nM |  |  |
| Nc1n[nH]c2ncc(-c3ccc(CNc4ncc(C(F)(F)F)cc4C(=O)Nc4cncc(F)c4)cc3)cc12 [Example 306, 2-(4-(3-amino-1H-pyrazolo [3,4-b]pyridin-5-yl)benzylamino)-N-(5-fluoropyridin-3-yl)-5-(trifluoromethyl)nicotinamide] | < 100 nM | < 1000 nM |  |  |
| C[C@H](NC(=O)c1cc(C#N)cnc1NCc1ccc(-c2cnc3[nH]ncc3c2)nc1)c1ccc(F)cc1 [Example 65, 5-Cyano-N-[(S)-1-(4-fluoro-phenyl)-ethyl]-2-{[6-(1H-pyrazolo[3,4-b]pyridin-5-yl)-pyridin-3-ylmethyl]-amino}-nicotinamide] | < 100 nM | < 1000 nM |  |  |
| Nc1ncnc2ccc(-n3cc(CNc4ncccc4C(=O)NCc4ccc(F)c(F)c4)nn3)cc12 [Ex. 9.1, 2-((1-(4-aminoquinazolin-6-yl)-1H-1,2,3-triazol-4-yl)methylamino)-N-(3,4-difluorobenzyl)nicotinamide] |  |  | 100 to 1000 nM | > 10000 nM |
| C[C@H](NC(=O)c1cc(C#N)cnc1NCc1ccc(-c2ccc(NCCN3CCOCC3)nc2)cc1)c1ccc(F)cc1 [Example 223, 5-Cyano-N-[(S)-1-(4-fluoro-phenyl)-ethyl]-2-{4-[6-(2-morpholin-4-yl-ethylamino)-pyridin-3-yl]-benzylamino}-nicotinamide] | > 5000 nM | > 10000 nM |  |  |

More lines, now with the values ahead:

| IC50 (PDK1; inhibition of PDK1 in vitro) | EC50 [1, 2] | IC50 (PDK1; [3]) | EC50 [1, 4] | SMILES |
| --- | --- | --- | --- | --- |
| 100 to 1000 nM | 1000 to 10000 nM |  |  | C[C@@H](NC(=O)c1nc(C#N)cnc1NCc1ccc(-c2cnc3[nH]nc(N)c3c2)cc1)c1ccc(F)c(F)c1 [Example 417, (R)-3-(4-(3-amino-1H-pyrazolo[3,4-b]pyridin-5-yl)benzylamino)-6-cyano-N-(1-(3,4-difluorophenyl)ethyl) pyrazine-2-carboxamide] |
| < 100 nM | 1000 to 10000 nM |  |  | C[C@H](NC(=O)c1cc(C#N)cnc1NCc1ccc(-c2cnc(N)c(C(=O)NCCN3CCOCC3)c2)cc1)c1ccc(F)cc1 [Example 202, (S)-2-amino-5-(4-((5-cyano-3-(1-(4-fluorophenyl)ethylcarbamoyl)pyridin-2-ylamino)methyl)phenyl)-N-(2-morpholinoethyl) nicotinamide] |
|  |  | < 100 nM | < 1000 nM | C[C@H](NC(=O)c1nccnc1NCc1ccc(-c2ccc3ncnc(N)c3c2)s1)c1ccc(F)c(F)c1 [Example 3.77, 3-({[5-(4-aminoquinazolin-6-yl)thiophen-2-yl]methyl}amino)-N-[(1S)-1-(3,4-difluorophenyl)ethyl] pyrazine-2-carboxamide (TFA salt)] |
| < 100 nM | < 1000 nM |  |  | C[C@H](NC(=O)c1nc(C#N)cnc1NCc1ccc(-c2c[nH]c3ncnc(N)c23)cc1)c1ccc(F)c(F)c1 [Example 315, (S)-3-(4-(4-amino-7H-pyrrolo[2,3-d]pyrimidin-5-yl)benzylamino)-6-cyano-N-(1-(3,4-difluoro-phenyl)ethyl)pyrazine-2-carboxamide] |
| > 5000 nM | > 10000 nM |  |  | C[C@H](NC(=O)c1cc(C#N)cnc1NCc1ccc(-c2cnc(NCCCN(C)C)cn2)cc1)c1ccc(F)cc1 [Example 225, 5-Cyano-2-{4-[5-(3-dimethylamino-propylamino)-pyrazin-2-yl]-benzylamino}-N-[(S)-1-(4-fluoro-phenyl)-ethyl]-nicotinamide] |
| < 100 nM | < 1000 nM |  |  | C[C@H](NC(=O)c1cc(C#N)cnc1NCc1ccc(-c2cnc(N)c(NCCN)n2)cc1)c1ccc(F)cc1 [Example 199, 2-{4-[5-Amino-6-(2-amino-ethylamino)-pyrazin-2-yl]-benzylamino}-5-cyano-N-[(S)-1-(4-fluoro-phenyl)-ethyl]-nicotinamide] |
|  |  | 1000 to 5000 nM | > 10000 nM | C[C@H](NC(=O)c1cccnc1NCc1ccc(-c2cn3ccnc3cn2)s1)c1ccc(F)cc1 [Example 2.8, (S)-N-(1-(4-fluorophenyl)ethyl)-2-(((5-(imidazo[1,2-a]pyrazin-6-yl)thiophen-2-yl)methyl)amino)nicotinamide] |
| < 100 nM | < 1000 nM |  |  | NCCNc1nc(-c2ccc(CNc3ncc(C(F)(F)F)cc3C(=O)Nc3ccc(F)cc3)cc2)cnc1N [Example 194, 2-{4-[5-Amino-6-(2-amino-ethylamino)-pyrazin-2-yl]-benzylamino}-N-(4-fluoro-phenyl)-5-trifluoromethyl-nicotinamide] |
|  |  | 100 to 1000 nM | 1000 to 10000 nM | CCCNS(=O)(=O)c1cnc(NCc2ccc(-c3ccc4ncnc(N)c4c3)s2)c(C(=O)NCc2ccc(F)c(F)c2)c1 [Example 8.6.9, 2-(((5-(4-aminoquinazolin-6-yl)thiophen-2-yl)methyl)amino)-N-(3,4-difluorobenzyl)-5-(N-propylsulfamoyl) nicotinamide] |
|  |  | 100 to 1000 nM | > 10000 nM | Nc1ncnc2ccc(-c3ccc(CNc4ncc(NC(=O)c5ccccc5)cc4C(=O)NCc4ccc(F)c(F)c4)s3)cc12 [Example 8.5.7, 2-({[5-(4-aminoquinazolin-6-yl)thiophen-2-yl]methyl}amino)-N-(3,4-difluorobenzyl)-5-[(phenylcarbonyl)amino] pyridine-3-carboxamide] |
| < 100 nM | < 1000 nM |  |  | Nc1n[nH]c2ncc(-c3ccc(CNc4ncc(C(F)(F)F)cc4C(=O)Nc4cccnc4)cc3)cc12 [Example 289, 2-(4-(3-amino-1H-pyrazolo [3,4-b]pyridin-5-yl)benzylamino)-N-(pyridin-3-yl)-5-(trifluoromethyl) nicotinamide] |
